Results on 30 compounds are retold here after patent US9273033B2, “Substituted pyridone derivatives as PDE10 inhibitors” (Merck Sharp & Dohme Corp., priority 2012, dated 2016).

What is called Ki is the dissociation constant of the complex between target and ligand, obtained from inhibition or displacement.

For this assay, the target named is human PDE10A2 (Homo sapiens (Human), UniProt Q9Y233). Put plainly: PDE10 fluorescence polarization (IMAP FP) inhibition assay. It is filed as biochemical. Conditions: human PDE10A2, FAM-labeled cAMP substrate, read-out: PDE10A Ki. The essentials: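 Cytoplasmic lysate of AD293 cells transiently expressing human PDE10A2 (diluted to ~20% substrate conversion) incubated 30 min at room temperature with 50 nM FAM-cAMP in Tris pH 7.2 buffer with MgCl2, DTT. Activity read by IMAP fluorescence polarization. 0% inhibition set with 1% DMSO, 100% with reference PDE10 inhibitor.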
human PDE10A2, sequence (Q9Y233 267-1055): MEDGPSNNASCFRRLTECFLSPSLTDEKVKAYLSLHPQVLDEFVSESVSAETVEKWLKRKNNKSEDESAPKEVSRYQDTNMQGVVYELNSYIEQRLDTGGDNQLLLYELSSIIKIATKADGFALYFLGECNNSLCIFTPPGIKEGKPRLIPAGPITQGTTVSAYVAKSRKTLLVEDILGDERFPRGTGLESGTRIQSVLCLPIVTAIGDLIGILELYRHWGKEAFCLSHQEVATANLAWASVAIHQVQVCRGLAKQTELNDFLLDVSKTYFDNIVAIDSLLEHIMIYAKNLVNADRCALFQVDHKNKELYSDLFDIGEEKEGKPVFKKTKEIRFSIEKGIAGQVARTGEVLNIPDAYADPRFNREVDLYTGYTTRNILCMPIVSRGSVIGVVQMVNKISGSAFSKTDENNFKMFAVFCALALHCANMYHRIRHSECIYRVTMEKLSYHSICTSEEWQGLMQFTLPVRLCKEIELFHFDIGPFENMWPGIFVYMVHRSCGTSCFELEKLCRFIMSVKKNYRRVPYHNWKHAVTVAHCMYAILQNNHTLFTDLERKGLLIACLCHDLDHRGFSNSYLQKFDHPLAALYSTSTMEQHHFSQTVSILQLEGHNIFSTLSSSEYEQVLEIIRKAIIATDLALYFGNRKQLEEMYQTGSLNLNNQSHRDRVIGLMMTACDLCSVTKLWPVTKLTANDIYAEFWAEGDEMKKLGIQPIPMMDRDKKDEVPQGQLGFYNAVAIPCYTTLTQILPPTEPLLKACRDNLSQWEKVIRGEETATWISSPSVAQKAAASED
Background: Polarisation of emitted light reports the rotation of a fluorescent probe.
For the compound `COc1ccc([C@H]2C[C@@H]2COc2nc(C)ncc2-c2cc(=O)n(C)cc2C#N)nc1` [Example 89, 4-(4-(((1S,2S)-2-(5-methoxypyridin-2-yl)cyclopropyl)methoxy)-2-methylpyrimidin-5-yl)-1-methyl-6-oxo-1,6-dihydropyridine-3-carbonitrile], the Ki was found to be 7.39 nM.

Consider `Cc1ncc(-c2ccn(C)c(=O)c2)c(OC[C@H]2C[C@@H]2c2ccc(OC(F)F)cn2)n1` [Example 90, 4-(4-(((1S,2S)-2-(5-(difluoromethoxy)pyridin-2-yl)cyclopropyl)methoxy)-2-methylpyrimidin-5-yl)-1-methylpyridin-2(1H)-one], for which the inhibition constant (Ki) amounted to 9.22 nM.

As for `Cc1ccc([C@H]2C[C@@H]2COc2nc(C)ncc2-c2ccn(C(C)C)c(=O)c2)nc1` [Example 91, 1-isopropyl-4-(2-methyl-4-(((1S,2S)-2-(5-methylpyridin-2-yl)cyclopropyl)methoxy)pyrimidin-5-yl)pyridin-2(1H)-one], the Ki came out at 1.2 nM. As for `COc1ccc([C@H]2C[C@@H]2COc2nc(C)ncc2-c2cc(=O)n(C)cc2SC)nc1` [Example 92, 4-(4-(((1S,2S)-2-(5-methoxypyridin-2-yl)cyclopropyl)methoxy)-2-methylpyrimidin-5-yl)-1-methyl-5-(methylthio)pyridin-2(1H)-one], the inhibition constant (Ki) turned out to be 12.5 nM.

For the compound `COc1ccc([C@H]2C[C@@H]2COc2nc(C)ncc2-c2cc(=O)n(C)cc2C(F)(F)F)nc1` [Example 93, 4-(4-(((1S,2S)-2-(5-methoxypyridin-2-yl)cyclopropyl)mcthoxy)-2-methylpyrimidin-5-yl)-1-methyl-5-(trifluoromethyl)pyridin-2(1H)-one], the Ki worked out at 3.02 nM.

Turning to `Cc1ncc(-c2ccn(C)c(=O)c2)c(OC[C@@H]2C[C@H]2c2ccc(OC(F)F)cn2)n1` [Example 94, 4-(4-(((1R,2R)-2-(5-(difluoromethoxy)pyridin-2-yl)cyclopropyl)methoxy)-2-methylpyrimidin-5-yl)-1-methylpyridin-2(1H)-one], the Ki was 100 nM. As for `CCn1ccc(-c2cnc(C)nc2OC[C@H]2C[C@@H]2c2ccc(OC)cn2)cc1=O` [Example 95, 1-ethyl-4-(4-(((1S,2S)-2-(5-methoxypyridin-2-yl)cyclopropyl)methoxy)-2-methylpyrimidin-5-yl)pyridin-2(1H)-one], the Ki came to 0.75 nM. As for `CCn1ccc(-c2cnc(C)nc2OC[C@H]2C[C@@H]2c2ccc3ccccc3n2)cc1=O` [Example 96, 1-ethyl-4-(2-methyl-4-(((lS,2S)-2-(quinolin-2-yl)cyclopropyl)methoxy)pyrimidin-5-yl)pyridin-2(1H)-one], the figure is 0.021 nM; as for `Cc1ncc(-c2cc(C)n(C)c(=O)c2)c(OC[C@H]2C[C@@H]2c2ccc3ccccc3n2)n1` [Example 97, 1,6-dimethyl-4-(2-methyl-4-(((1S,2S)-2-(quinolin-2-yl)cyclopropyl)methoxy)pyrimidin-5-yl)pyridin-2(1H)-one], 0.041 nM; as for `COc1ccc([C@H]2C[C@@H]2COc2nc(C)ncc2-c2cc(=O)n(C)cc2S(C)(=O)=O)nc1` [Example 98, 4-(4-(((1S,2S)-2-(5-methoxypyridin-2-yl)cyclopropyl)methoxy)-2-methylpyrimidin-5-yl)-1-methyl-5-(methylsulfonyl)pyridin-2(1H)-one], 67.5 nM. As for `Cc1ccc([C@H]2C[C@@H]2COc2nc(C)ncc2-c2cc(=O)n(C)cc2Cl)nc1` [Example 99, 5-chloro-1-methyl-4-(2-methyl-4-(((1S,2S)-2-(5-methylpyridin-2-yl)cyclopropyl)methoxy)pyrimidin-5-yl)pyridin-2(1H)-one], the figure is 1.11 nM; as for `COCCn1ccc(-c2cnc(C)nc2OC[C@H]2C[C@@H]2c2ccc3ccccc3n2)cc1=O` [Example 100, 1-(2-methoxyethyl)-4-(2-methyl-4-(((1S,2S)-2-(quinolin-2-yl)cyclopropyl)methoxy)pyrimidin-5-yl)pyridin-2(1H)-one], 0.012 nM. As for `COCCn1ccc(-c2cnc(C)nc2OC[C@H]2C[C@@H]2c2ccc(C)cn2)cc1=O` [Example 101, 1-(2-methoxyethyl)-4-(2-mcthyl-4-(((1S,2S)-2-(5-methylpyridin-2-yl)cyclopropyl)methoxy)pyrimidin-5-yl)pyridin-2(lH)-one], the figure is 0.4 nM. In the case of `Cc1ncc(-c2cc(=O)n(C)cc2Cl)c(OC[C@H]2C[C@@H]2c2ccc3ccccc3n2)n1` [Example 102, 5-chloro-1-methyl-4-(2-methyl-4-(((1S,2S)-2-(quinolin-2-yl)cyclopropyl)methoxy)pyrimidin-5-yr)pyridin-2(1H)-one], the Ki amounted to 0.04 nM. As for `Cc1ncc(-c2ccn(C)c(=O)c2)c(OC[C@@H]2C[C@H]2c2ccc(Cl)cn2)n1` [Example 103, 4-(4-(((1R,2R)-2-(5-chloropyridin-2-yl)cyclopropyl)methoxy)-2-methylpyrimidin-5-yl)-1-methylpyridin-2(1H)-one], the figure is 100 nM; as for `COc1ccc([C@H]2C[C@@H]2COc2nc(C)ncc2-c2ccn(C)c(=O)c2C#N)nc1` [Example 104, 4-(4-(((1S,2S)-2-(5-methoxypyridin-2-yl)cyclopropyl)methoxy)-2-methylpyrimidin-5-yl)-1-methyl-2-oxo-1,2-dihydropyridine-3-carbonitrile], 8.16 nM; as for `Cc1ccc([C@H]2C[C@@H]2COc2nc(C)ncc2-c2ccn(CC(F)(F)F)c(=O)c2)nc1` [Example 105, 4-(2-methyl-4-(((1S,2S)-2-(5-methylpyridin-2-yl)cyclopropyl)methoxy)pyrimidin-5-yl)-1-(2,2,2-trifluoroethyl)pyridin-2(1H)-one], 0.74 nM. As for `Cc1ccc([C@H]2C[C@@H]2COc2nc(C)ncc2-c2ccn(CC(F)F)c(=O)c2)nc1` [Example 106, 1-(2,2-difluoroethyl)-4-(2-methyl-4-(((1S,2S)-2-(5-methylpyridin-2-yl)cyclopropyl)methoxy)pyrimidin-5-yl)pyridin-2(1H)-one], the figure is 1.81 nM; as for `Cc1ncc(-c2ccn(C)c(=O)c2)c(OC[C@H]2C[C@@H]2c2ccc(Cl)cn2)n1` [Example 107, 4-(4-(((1S,2S)-2-(5-chloropyridin-2-yl)cyclopropyl)methoxy)-2-methylpyrimidin-5-yl)-1-methylpyridin-2(1H)-one], 14.7 nM. As for `CCOC(=O)c1cn(C)c(=O)cc1-c1cnc(C)nc1OC[C@H]1C[C@@H]1c1ccc(OC)cn1` [Example 108, ethyl 4-(4-(((1S,2S)-2-(5-methoxypyridin-2-yl)cyclopropyl)methoxy)-2-methylpyrimidin-5-yl)-1-methyl-6-oxo-1,6-dihydropyridine-3-carboxylate], the figure is 100 nM; as for `COc1ccc([C@H]2C[C@@H]2COc2nc(C)ncc2-c2ccn(CC#N)c(=O)c2)nc1` [Example 111, 2-(4-(4-(((1S,2S)-2-(5-methoxypyridin-2-yl)cyclopropyl)methoxy)-2-methylpyrimidin-5-yl)-2-oxopyridin-1(2H)-yl)acetonitrile], 0.441 nM; as for `COc1ccc([C@H]2C[C@@H]2COc2nc(C)ncc2-c2ccn(CCC#N)c(=O)c2)nc1` [Example 112, 3-(4-(4-(((1S,2S)-2-(5-methoxypyridin-2-yl)cyclopropyl)methoxy)-2-methylpyrimidin-5-yl)-2-oxopyridin-1(2H)-yl)propanenitrile], 0.944 nM. As for `COc1ccc([C@H]2C[C@@H]2COc2nc(C)ncc2-c2cc(C)n(C)c(=O)c2)nc1` [Example 113, 4-(4-(((1S,2S)-2-(5-methoxypyridin-2-yl)cyclopropyl)methoxy)-2-methylpyrimidin-5-yl)-1,6-dimethylpyridin-2(1H)-one], the Ki is 0.8 nM. As for `Cc1ncc(-c2ccn(C)c(=O)c2)c(OC[C@H]2C[C@@H]2c2ccc3c(n2)CCC3)n1` [Example 114, 4-(4-(((1S,2S)-2-(6,7-dihydro-5H-cyclopenta[b]pyridin-2-yl)cyclopropyl)methoxy)-2-methylpyrimidin-5-yl)-1-methylpyridin-2(1H)-one], the figure is 0.378 nM. As for `COc1ccc([C@H]2C[C@@H]2COc2nc(C)ncc2-c2ccn(C)c(=O)c2SC)nc1` [Example 115, 4-(4-(((1S,2S)-2-(5-methoxypyridin-2-yl)cyclopropyl)methoxy)-2-methylpyrimidin-5-yl)-1-methyl-3-(methylthio)pyridin-2(1H)-one], the figure is 18 nM; as for `Cc1ccc([C@H]2C[C@@H]2COc2nc(C)ncc2-c2ccn(C(F)F)c(=O)c2)nc1` [Example 116, 1-(difluoromethyl)-4-(2-methyl-4-(((1S,2S)-2-(5-methylpyridin-2-yl)cyclopropyl)methoxy)pyrimidin-5-yl)pyridin-2(1H)-one], 1.83 nM; as for `COc1ccc([C@H]2C[C@@H]2COc2nc(C)ncc2-c2ccn(C(F)F)c(=O)c2)nc1` [Example 117, 1-(difluoromethyl)-4-(4-(((1S,2S)-2-(5-methoxypyridin-2-yl)cyclopropyl)methoxy)-2-methylpyrimidin-5-yl)pyridin-2(1H)-one], 1.93 nM. As for `COCCn1ccc(-c2cnc(C)nc2OC[C@H]2C[C@@H]2c2ccc(OC)cn2)cc1=O` [Example 118, 1-(2-methoxyethyl)-4-(4-(((1S,2S)-2-(5-methoxypyridin-2-yl)cyclopropyl)methoxy)-2-methylpyrimidin-5-yl)pyridin-2(1H)-one], the figure is 0.553 nM; as for `Cc1ccc([C@H]2C[C@@H]2COc2nc(C)ncc2-c2ccn(CCC#N)c(=O)c2)nc1` [Example 119, 3-(4-(2-methyl-4-(((1S,2S)-2-(5-methylpyridin-2-yl)cyclopropyl)methoxy)pyrimidin-5-yl)-2-oxopyridin-1(2H)-yl)propanenitrile], 1.58 nM. Consider `Cc1ccc([C@H]2C[C@@H]2COc2nc(C)ncc2-c2ccn(CC#N)c(=O)c2)nc1` [Example 120, 2-(4-(2-methyl-4-(((1S,2S)-2-(5-methylpyridin-2-yl)cyclopropyl)methoxy)pyrimidin-5-yl)-2-oxopyridin-1(2H)-yl)acetonitrile], for which the Ki was found to be 1.06 nM.
